This note sets out measurements from patent US9605003B2, “Heterocyclic compounds and uses thereof” (Infinity Pharmaceuticals, Inc., priority 2011, dated 2017).

Assay [1] deals with T1, PI3Kα (Homo sapiens, UniProt P42336).
T1 construct: purchased Millipore Corporation 14-602-K
In words: PI3 Kinase HTRF assay, PI3Kα. It is filed as biochemical. The conditions noted are these: Between 1 μM and 10 μM; read-out: PI3K α IC50. The text has this: (§1) A PI3-Kinase HTRF® assay kit (cat No. 33-016) purchased from Millipore Corporation was used to screen compounds provided herein. This assay used specific, high affinity binding of the GRP1 pleckstrin homology (PH) domain to PIP3, the product of a Class 1A or 1B PI3 Kinase acting on its physiological substrate PIP2. During the detection phase of the assay, a complex was generated between the GST-tagged PH domain and biotinylated short chain PIP3. The biotinylated PIP3 and the GST-tagged PH domain recruited fluorophores (Streptavidin-Allophycocyanin and Europium-labeled anti-GST respectively) to form the fluorescence resonance energy transfer (FRET) architecture, generating a stable time-resolved FRET signal. The FRET complex was disrupted in a competitive manner by non-biotinylated PIP3, a product formed in the PI3 Kinase assay.
(§2) PI3 Kinase α, β, γ and δ activity was assayed using the PI3 Kinase HTRF® assay kit (catalogue No. 33-016) purchased from Millipore Corporation. Purified recombinant PI3Kα (catalogue No. 14-602-K), PI3Kβ (catalogue No. 14-603-K), PI3Kγ (catalogue No. 14-558-K) and PI3Kδ (catalogue No. 14-604-K) were obtained from Millipore Corporation. Purified recombinant PI3K enzyme was used to catalyze the phosphorylation of phosphatidylinositol 4,5-bisphosphate (PIP2 at 10 μM) to phosphatidylinositol 3,4,5-trisphosphate (PIP3) in the presence of 10 μM ATP. The assay was carried out in 384-well format and detected using a Perkin Elmer EnVision Xcite Multilabel Reader. Emission ratios were converted into percent inhibitions and imported into GraphPad Prism software. The concentration necessary to achieve inhibition of enzyme activity by 50% (IC50) was calculated using concentrations ranging from 20 μM to 0.1 nM (12-point curve). IC50 values were determined using a nonlinear regression model available in GraphPad Prism 5.
(In general: Time-resolved FRET reads energy transfer from a long-lived donor to a nearby acceptor.)

Assay [2] addresses T2, PI3Kβ (Homo sapiens, UniProt P42338).
T2 construct: purchased Millipore Corporation 14-603-K
Briefly: PI3 Kinase HTRF assay, PI3Kβ. As to conditions: Between 1 μM and 10 μM; read-out: PI3K β IC50. It is filed as biochemical.
Excerpt: as §1, §2

For assay [3], the system named is Balb/c splenic B cells. In words: B cell activation and proliferation assay (Alamar Blue). The class given is cell-based. As to conditions: Mus musculus, Less than 100 nanoMolar. The protocol:
The ability of one or more subject compounds to inhibit B cell activitation and proliferation is determined according to standard procedures known in the art. For example, an in vitro cellular proliferation assay is established that measures the metabolic activity of live cells. The assay is performed in a 96 well microtiter plate using Alamar Blue reduction. Balb/c splenic B cells are purified over a Ficoll-Paque™ PLUS gradient followed by magnetic cell separation using a MACS B cell Isolation Kit (Miletenyi). Cells are plated in 90 μl at 50,000 cells/well in B Cell Media (RPMI+10% FBS+Penn/Strep+50 μM bME+5 mM HEPES). A compound provided herein is diluted in B Cell Media and added in a 10 μl volume. Plates are incubated for 30 min at 37° C. and 5% CO2 (0.2% DMSO final concentration). A 50 μl B cell stimulation cocktail is then added containing either 10 μg/ml LPS or 5 μg/ml F(ab′)2 Donkey anti-mouse IgM plus 2 ng/ml recombinant mouse IL4 in B Cell Media. Plates are incubated for 72 hours at 37° C. and 5% CO2. A volume of 15 μL of Alamar Blue reagent is added to each well and plates are incubated for 5 hours at 37° C. and 5% CO2. Alamar Blue fluoresce is read at 560Ex/590Em, and IC50 or EC50 values are calculated using GraphPad Prism 5.
On the technique in general: The colour change of resazurin is a common sign of viable cells or microbes.

The structures appear in SMILES notation.

T2 sequence (P42338 whole entry): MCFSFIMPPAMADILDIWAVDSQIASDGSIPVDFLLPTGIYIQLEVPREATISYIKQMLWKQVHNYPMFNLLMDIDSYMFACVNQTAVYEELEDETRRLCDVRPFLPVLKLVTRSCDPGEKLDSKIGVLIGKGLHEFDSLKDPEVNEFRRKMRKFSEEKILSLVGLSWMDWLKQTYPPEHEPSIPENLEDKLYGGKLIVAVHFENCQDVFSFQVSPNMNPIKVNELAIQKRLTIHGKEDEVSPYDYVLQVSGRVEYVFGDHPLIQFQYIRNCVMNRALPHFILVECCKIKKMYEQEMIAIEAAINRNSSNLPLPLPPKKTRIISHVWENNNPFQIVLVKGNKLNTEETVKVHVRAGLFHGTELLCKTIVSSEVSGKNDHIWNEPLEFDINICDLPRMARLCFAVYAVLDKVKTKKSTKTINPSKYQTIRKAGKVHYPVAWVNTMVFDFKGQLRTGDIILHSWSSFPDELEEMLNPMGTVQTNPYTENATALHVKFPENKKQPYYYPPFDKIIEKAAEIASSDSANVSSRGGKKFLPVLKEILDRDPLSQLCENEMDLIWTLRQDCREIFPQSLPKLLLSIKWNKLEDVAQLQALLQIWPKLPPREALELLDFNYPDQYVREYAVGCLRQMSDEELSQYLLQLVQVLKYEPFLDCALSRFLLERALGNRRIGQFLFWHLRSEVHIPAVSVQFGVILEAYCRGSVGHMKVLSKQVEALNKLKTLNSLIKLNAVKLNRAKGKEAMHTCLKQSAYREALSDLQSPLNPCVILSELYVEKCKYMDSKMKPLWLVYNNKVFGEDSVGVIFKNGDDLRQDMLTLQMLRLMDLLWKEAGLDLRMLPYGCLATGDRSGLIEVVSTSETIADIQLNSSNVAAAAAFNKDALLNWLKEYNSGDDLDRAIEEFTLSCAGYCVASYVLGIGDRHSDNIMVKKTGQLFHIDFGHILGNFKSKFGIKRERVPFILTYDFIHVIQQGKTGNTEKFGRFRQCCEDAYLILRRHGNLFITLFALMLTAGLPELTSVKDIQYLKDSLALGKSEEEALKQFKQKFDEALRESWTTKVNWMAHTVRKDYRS
T2 sequence (P27986 2-724 partner limits assumed): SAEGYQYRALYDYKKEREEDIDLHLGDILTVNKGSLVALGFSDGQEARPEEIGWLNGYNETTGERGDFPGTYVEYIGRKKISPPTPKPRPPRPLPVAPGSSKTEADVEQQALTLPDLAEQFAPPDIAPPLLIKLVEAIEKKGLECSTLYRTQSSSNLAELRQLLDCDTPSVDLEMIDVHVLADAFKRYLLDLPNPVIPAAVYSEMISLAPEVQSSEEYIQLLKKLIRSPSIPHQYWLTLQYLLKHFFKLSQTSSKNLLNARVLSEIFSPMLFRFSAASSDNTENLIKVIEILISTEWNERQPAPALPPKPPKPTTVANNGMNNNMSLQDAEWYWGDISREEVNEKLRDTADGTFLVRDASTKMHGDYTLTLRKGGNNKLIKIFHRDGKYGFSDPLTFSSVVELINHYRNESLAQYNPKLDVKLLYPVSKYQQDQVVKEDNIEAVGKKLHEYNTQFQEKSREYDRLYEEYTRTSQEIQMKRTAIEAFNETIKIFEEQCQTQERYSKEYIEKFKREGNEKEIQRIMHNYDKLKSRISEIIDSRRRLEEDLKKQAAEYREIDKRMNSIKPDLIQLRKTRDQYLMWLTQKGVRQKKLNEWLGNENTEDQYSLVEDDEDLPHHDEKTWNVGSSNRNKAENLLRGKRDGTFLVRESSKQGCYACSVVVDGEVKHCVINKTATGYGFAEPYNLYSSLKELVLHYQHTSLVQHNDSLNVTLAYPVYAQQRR
T1 sequence (P42336 whole entry): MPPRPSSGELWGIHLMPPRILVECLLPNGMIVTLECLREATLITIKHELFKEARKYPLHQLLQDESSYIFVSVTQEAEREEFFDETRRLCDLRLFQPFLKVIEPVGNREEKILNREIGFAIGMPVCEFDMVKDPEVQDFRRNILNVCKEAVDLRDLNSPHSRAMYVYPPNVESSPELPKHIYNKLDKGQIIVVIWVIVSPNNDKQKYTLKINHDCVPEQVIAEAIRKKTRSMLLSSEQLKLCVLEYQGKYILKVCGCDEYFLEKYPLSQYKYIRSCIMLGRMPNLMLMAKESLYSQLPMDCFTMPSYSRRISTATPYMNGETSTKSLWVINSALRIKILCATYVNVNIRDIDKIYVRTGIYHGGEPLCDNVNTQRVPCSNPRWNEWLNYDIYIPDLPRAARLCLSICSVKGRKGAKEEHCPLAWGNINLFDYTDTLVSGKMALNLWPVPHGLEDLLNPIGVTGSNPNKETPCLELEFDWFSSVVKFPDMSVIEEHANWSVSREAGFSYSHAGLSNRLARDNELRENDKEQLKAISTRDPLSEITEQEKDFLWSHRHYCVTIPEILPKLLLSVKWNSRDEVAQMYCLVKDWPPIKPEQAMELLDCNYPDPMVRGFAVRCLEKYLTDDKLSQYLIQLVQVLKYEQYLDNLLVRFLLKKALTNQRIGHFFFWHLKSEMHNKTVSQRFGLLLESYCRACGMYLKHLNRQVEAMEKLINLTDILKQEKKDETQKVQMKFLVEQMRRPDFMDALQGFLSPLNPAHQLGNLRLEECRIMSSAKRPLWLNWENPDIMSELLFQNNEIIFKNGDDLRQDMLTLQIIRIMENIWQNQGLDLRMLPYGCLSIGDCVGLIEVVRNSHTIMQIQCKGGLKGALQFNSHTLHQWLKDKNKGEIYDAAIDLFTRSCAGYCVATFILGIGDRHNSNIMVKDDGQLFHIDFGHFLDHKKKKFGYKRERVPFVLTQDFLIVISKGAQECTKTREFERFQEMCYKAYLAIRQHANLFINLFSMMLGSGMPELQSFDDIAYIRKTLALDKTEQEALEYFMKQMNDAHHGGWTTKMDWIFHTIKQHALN
T1 sequence (P27986 whole entry partner): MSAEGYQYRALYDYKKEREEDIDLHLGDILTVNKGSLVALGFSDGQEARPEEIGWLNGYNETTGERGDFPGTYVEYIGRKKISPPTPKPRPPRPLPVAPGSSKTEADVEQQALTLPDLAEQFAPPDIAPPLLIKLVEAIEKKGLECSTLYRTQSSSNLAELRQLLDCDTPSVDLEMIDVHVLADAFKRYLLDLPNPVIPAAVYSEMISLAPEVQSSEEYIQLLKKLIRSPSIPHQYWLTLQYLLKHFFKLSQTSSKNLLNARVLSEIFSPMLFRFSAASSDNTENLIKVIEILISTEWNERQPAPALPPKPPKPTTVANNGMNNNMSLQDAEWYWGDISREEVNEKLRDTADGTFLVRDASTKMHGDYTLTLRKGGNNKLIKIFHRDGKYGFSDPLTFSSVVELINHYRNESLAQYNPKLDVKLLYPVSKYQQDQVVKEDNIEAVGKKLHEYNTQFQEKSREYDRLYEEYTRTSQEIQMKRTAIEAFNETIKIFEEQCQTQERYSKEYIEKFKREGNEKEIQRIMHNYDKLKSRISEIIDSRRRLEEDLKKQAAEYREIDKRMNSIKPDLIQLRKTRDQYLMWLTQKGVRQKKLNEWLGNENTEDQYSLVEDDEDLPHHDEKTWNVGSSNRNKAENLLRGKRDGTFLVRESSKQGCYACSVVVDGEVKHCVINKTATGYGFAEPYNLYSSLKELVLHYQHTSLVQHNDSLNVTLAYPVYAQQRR

What is called IC50 is the concentration that inhibits the measured activity by half. Turning to `COc1ccc(-c2cccc3cc([C@H](C)Nc4ncnc5scnc45)n(-c4ccccc4)c(=O)c23)cn1` [Compound 18], the IC50 in assay [1] and in assay [2] was 1 to 10 µM each time.

Regarding `C[C@H](Nc1ncnc2scnc12)c1cc2ccccc2c(=O)n1-c1ccccc1` [Compound 71], the IC50 in assay [1] and in assay [2] was 1 to 10 µM throughout.

As a reminder, the EC50 is the concentration giving half of the maximal effect. A higher EC50 goes with weaker potency. For the molecule `C[C@H](Nc1ncnc2scnc12)c1cc2cccc(Cl)c2c(=O)n1-c1ccccc1` [Compound 2], the EC50 in assay [3] is < 0.1 µM.

As to `C[C@H](Nc1ncnc2scnc12)c1cc2cccc(-c3cncnc3)c2c(=O)n1-c1ccccc1` [Compound 19], the IC50 in assay [1] and in assay [2] was 1 to 10 µM each time.

Take `Cc1cc(-c2cccc3cc([C@H](C)Nc4ncnc5scnc45)n(-c4ccccc4)c(=O)c23)ccn1` [Compound 27]: the IC50 in assay [2] was 1 to 10 µM.

On to `COc1ccccc1-c1cccc2cc([C@H](C)Nc3ncnc4scnc34)n(-c3ccccc3)c(=O)c12` [Compound 35], for which the IC50 in assay [1] and in assay [2] was 1 to 10 µM throughout.

In the case of `COc1cc(-c2cccc3cc([C@H](C)Nc4ncnc5scnc45)n(-c4ccccc4)c(=O)c23)ccn1` [Compound 52], in assay [3], the EC50 is < 0.1 µM. In assay [2], the concentration for half-maximal inhibition (IC50) lay in the range of 1 to 10 µM.

For the molecule `C[C@H](Nc1ncnc2scnc12)c1cc2cccc(-c3cccc(N(C)C)c3)c2c(=O)n1-c1ccccc1` [Compound 45], the EC50 in assay [3] was < 0.1 µM. For the same molecule, the IC50 in assay [2] lay in the range of 1 to 10 µM.

With `C[C@H](Nc1ncnc2scnc12)c1cc2scc(Cl)c2c(=O)n1-c1ccccc1` [Compound 15], the IC50 in assay [1] was 1 to 10 µM.

Regarding `C[C@H](Nc1ncnc2scnc12)c1cc2cccc(-c3cnc4c(c3)CCCO4)c2c(=O)n1-c1ccccc1` [Compound 54], the EC50 in assay [3] was < 0.1 µM. The IC50 in assay [2] fell in the range of 1 to 10 µM.

Take `CCn1cc(-c2cccc3cc([C@H](C)Nc4ncnc5scnc45)n(-c4ccccc4)c(=O)c23)cn1` [Compound 25]: the IC50 in assay [1] and in assay [2] was 1 to 10 µM throughout.

As to `Cc1cncc(-c2cccc3cc([C@H](C)Nc4ncnc5scnc45)n(-c4ccccc4)c(=O)c23)c1` [Compound 20], the IC50 in assay [2] was 1 to 10 µM.

On to `C[C@H](Nc1ncnc2scnc12)c1cc2cccc(Cl)c2c(=O)n1CCN1CCCC1` [Compound 68], for which, in assay [3], the EC50 was < 0.1 µM.

As to `C[C@H](Nc1ncnc2scnc12)c1cc2cccc(-c3ccoc3)c2c(=O)n1-c1ccccc1` [Compound 34], the IC50 in assay [2] is 1 to 10 µM.

Take `Cc1cc(-c2cccc3cc([C@H](C)Nc4ncnc5scnc45)n(-c4ccccc4)c(=O)c23)cnc1F` [Compound 30]: the IC50 in assay [1] and in assay [2] was 1 to 10 µM each time.

In the case of `Cc1ccnc2cc(C(C)Nc3ncnc4scnc34)n(-c3ccccc3)c(=O)c12` (stereo not drawn) [Compound 70], the IC50 in assay [2] is 1 to 10 µM.

With `C[C@H](Nc1ncnc2scnc12)c1cc2cccc(Cl)c2c(=O)n1-c1cccc(C(F)(F)F)c1` [Compound 73], the IC50 in assay [2] was in the range of 1 to 10 µM.

For `C[C@H](Nc1ncnc2scnc12)c1cc2cccc(-c3ccc(C(F)(F)F)nc3)c2c(=O)n1-c1ccccc1` [Compound 13], the EC50 in assay [3] was < 0.1 µM.

Turning to `COc1cccc(-c2cccc3cc([C@H](C)Nc4ncnc5scnc45)n(-c4ccccc4)c(=O)c23)c1` [Compound 31], the IC50 in assay [2] fell in the range of 1 to 10 µM.

For the molecule `C[C@H](Nc1ncnc2scnc12)c1cc2scc(-c3cnn(C)c3)c2c(=O)n1-c1ccccc1` [Compound 16], in assay [1], the IC50 was in the range of 1 to 10 µM.

`C[C@H](Nc1ncnc2scnc12)c1cc2cccc(-c3ccc(=O)n(C)c3)c2c(=O)n1-c1ccccc1` [Compound 51]: the EC50 in assay [3] was < 0.1 µM. In assay [2], the IC50 lay in the range of 1 to 10 µM.

With `C[C@H](Nc1ncnc2scnc12)c1cc2cccc(Cl)c2c(=O)n1C1CC1` [Compound 8], the EC50 in assay [3] was < 0.1 µM.

On to `Cc1cc(-c2cccc3cc([C@H](C)Nc4ncnc5scnc45)n(-c4ccccc4)c(=O)c23)cnc1C` [Compound 40], for which the IC50 in assay [1] and in assay [2] was 1 to 10 µM throughout.

For the molecule `C[C@H](Nc1ncnc2scnc12)c1cc2cccc(-c3cn[nH]c3)c2c(=O)n1-c1ccccc1` [Compound 26], the IC50 in assay [1] and in assay [2] was 1 to 10 µM each time.

Regarding `C[C@H](Nc1ncnc2scnc12)c1cc2cccc(-c3cccnc3)c2c(=O)n1-c1ccccc1` [Compound 28], the IC50 in assay [1] and in assay [2] was 1 to 10 µM throughout.

Consider `Cc1ncc(-c2cccc3cc([C@H](C)Nc4ncnc5scnc45)n(-c4ccccc4)c(=O)c23)cn1` [Compound 37], for which the concentration for half-maximal inhibition (IC50) in assay [1] was 1 to 10 µM.

With `C[C@H](Nc1ncnc2scnc12)c1cc2cccc(-c3ccnc(C(F)(F)F)c3)c2c(=O)n1-c1ccccc1` [Compound 17], the IC50 in assay [1] and in assay [2] was 1 to 10 µM each time.

Take `C[C@H](Nc1ncnc2scnc12)c1cc2cccc(-c3cnc(N)nc3)c2c(=O)n1-c1ccccc1` [Compound 50]: the EC50 in assay [3] is < 0.1 µM. For the same molecule, the IC50 in assay [2] was 1 to 10 µM.

For the molecule `C[C@H](Nc1ncnc2scnc12)c1cc2cccc(-c3cnc4nccnc4c3)c2c(=O)n1-c1ccccc1` [Compound 57], the EC50 in assay [3] is < 0.1 µM.

For the molecule `C[C@H](Nc1ncnc2scnc12)c1cc2cccc(-c3ccncc3)c2c(=O)n1-c1ccccc1` [Compound 33], the IC50 in assay [2] fell in the range of 1 to 10 µM.

For the molecule `CC(C)n1cc(-c2cccc3cc([C@H](C)Nc4ncnc5scnc45)n(-c4ccccc4)c(=O)c23)cn1` [Compound 23], in assay [1], the half-maximal inhibitory concentration (IC50) lay in the range of 1 to 10 µM.

In the case of `C[C@H](Nc1nc(Cl)nc2scnc12)c1cc2cccc(-c3cnn(C)c3)c2c(=O)n1-c1ccccc1` [Compound 75], the IC50 in assay [1] and in assay [2] was 1 to 10 µM in each case.

Turning to `C[C@H](Nc1ncnc2scnc12)c1cc2cccc(-c3cnc4ccccc4c3)c2c(=O)n1-c1ccccc1` [Compound 41], the 50% effective concentration (EC50) in assay [3] is < 0.1 µM.

Consider `C[C@H](Nc1ncnc2scnc12)c1cc2cccc(-c3ccc(N)nc3)c2c(=O)n1-c1ccccc1` [Compound 46], for which the EC50 in assay [3] was < 0.1 µM. For the same molecule, the IC50 in assay [2] was 1 to 10 µM.

Take `COc1ncc(-c2cccc3cc([C@H](C)Nc4ncnc5scnc45)n(-c4ccccc4)c(=O)c23)s1` [Compound 93]: the EC50 in assay [3] was < 0.1 µM. In addition, the IC50 in assay [2] was 1 to 10 µM.

As to `C[C@H](Nc1ncnc2scnc12)c1cc2cccc(-c3cnn(C)c3)c2c(=O)n1C1CC1` [Compound 9], the EC50 in assay [3] was < 0.1 µM.

With `C[C@H](Nc1ccnc2scnc12)c1cc2cccc(-c3cnn(C)c3)c2c(=O)n1-c1ccccc1` [Compound 91], the IC50 in assay [1] and in assay [2] was 1 to 10 µM in each case.

For `COc1cncc(-c2cccc3cc([C@H](C)Nc4ncnc5scnc45)n(C4CC4)c(=O)c23)c1` [Compound 64], the EC50 in assay [3] is < 0.1 µM.

With `C[C@H](Nc1ncnc2scnc12)c1cc2cccc(-c3cnc4ccoc4c3)c2c(=O)n1-c1ccccc1` [Compound 55], in assay [3], the EC50 was < 0.1 µM. Further, in assay [2], the IC50 lay within 1 to 10 µM.

Take `COc1cncc(-c2cccc3cc([C@H](C)Nc4ncnc5scnc45)n(-c4ccccc4)c(=O)c23)c1` [Compound 39]: the EC50 in assay [3] is < 0.1 µM.

With `Cc1nn(C)cc1-c1cccc2cc([C@H](C)Nc3ncnc4scnc34)n(-c3ccccc3)c(=O)c12` [Compound 42], the concentration for half-maximal inhibition (IC50) in assay [2] fell in the range of 1 to 10 µM.

For the molecule `CC(C)Cn1cc(-c2cccc3cc([C@H](C)Nc4ncnc5scnc45)n(-c4ccccc4)c(=O)c23)cn1` [Compound 24], the IC50 in assay [1] fell in the range of 1 to 10 µM.

`C[C@H](Nc1ncnc2scnc12)c1cc2cccc(-c3ccc(N)nc3)c2c(=O)n1C1CC1` [Compound 63]: the EC50 in assay [3] was < 0.1 µM.
